Experimental data: ChEMBL document CHEMBL1155596, “8-O-Methylsclerotiorinamine, antagonist of the Grb2-SH2 domain, isolated from Penicillium multicolor” (J Nat Prod, 2000)

Tests used:
[1] = target: Growth factor receptor-bound protein 2 (Homo sapiens, UniProt P62993); test: Inhibition of GST tagged Grb2 SH2 domain binding to Shc-derived [3H]phosphopeptide
[2] = Growth inhibition of mouse B104-1-1 cells after 48 hrs by WST1 assay; type: cell-based
[3] = target: Growth factor receptor-bound protein 2 (Mus musculus) (UniProt Q60631); test: Inhibition of Shc-Grb2 interaction in mouse B104-1-1 cells by immunoblotting; type: cell-based; parameters: scale not given: the % may be the effect or the level left
Growth factor receptor-bound protein 2 (Mus musculus), sequence (Q60631 whole entry): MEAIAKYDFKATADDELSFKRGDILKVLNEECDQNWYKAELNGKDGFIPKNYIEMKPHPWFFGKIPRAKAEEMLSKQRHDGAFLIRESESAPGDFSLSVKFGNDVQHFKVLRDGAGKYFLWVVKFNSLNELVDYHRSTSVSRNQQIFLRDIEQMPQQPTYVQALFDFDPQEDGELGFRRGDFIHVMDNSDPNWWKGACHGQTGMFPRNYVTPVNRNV

IC50 [1]: 5.3 µM
Activity [3]: 50%
Compound: CCC(C)/C=C(C)/C=C/c1cc2c(cn1)=C(OC)[C@@](C)(OC(C)=O)C(=O)C=2Cl (stereo partly drawn)
GI50 at 48 h [2]: 50 µM
